Experimental data as given in PMC6383986, “Fragment-Based Covalent Ligand Screening Enables Rapid Discovery of Inhibitors for the RBR E3 Ubiquitin Ligase HOIP” (Journal of the American Chemical Society, 2019).

Key:
Test in all cases: ABPP quantitative MS, MCF7
Format in all cases: cell-based
Conditions in all cases: 30 μM (11a) 7 h vs DMSO, then 3 μM (15) 2 h
[1] = molecular target: T1, ALDH6A1 (Homo sapiens, UniProt Q02252)
T1 construct: endogenous in cells; host or cells: HEK293T (A21); MCF7 (A27)
Protocol: (§1) control and cells treated with control compounds (11i) and (17) at 30 µM). HOIP RBR wild type […]
(§2) nm, indicating low to no labelling by (11a), and a dominant signal from the 800 channel (green).
(§3) C = HOIP RBR control (0.5 µg).
(§4) 5.2 Activity-based protein profiling – Enrichment and LC-MS
(§5) Cell culture and transfection, compound treatment, ha rvest and lysis
(§6) HEK293T cells were cultured and transfected as describ ed in section 4.8 above. MCF7 cells were seeded in 100 mm Petri dishes at 6 × 10^5 cells/dish and cultured overnight at 37 °C as described in section 4.8 above. Both cell types were treated with inhibitor (11a) (30 µM final concentration) or DMSO as described above, incubating for 7 h at 37 °C, followed by addition of clickable probe (15) (3 µM final concentration) and incubation for an additional 2 h. The cells were then harvested and lysed (50 mM Tris-HCl, pH 7.5, 1.5 mM MgCl2, 150 mM NaCl, 5% glycerol, 0.8% v/v IGEPAL-CA630, 25 mM NaF, 1 mM Na3VO4, complete protease inhibitor), and the protein concentration was determined by the BCA assay as described in section 4.7 above.
(§7) Enrichment of TCO-labelled proteins
(§8) Similar to a previously described protocol,22 tetrazine beads were generated by incubating high capacity neutravidin beads (500 µL; Thermo Scientific) with 0.1 µmol tetrazine-PEG4-biotin (Jena Bioscience) in PBS buffer over night at 4 °C, followed by blocking with 5 µL 100 mM biotin in DMSO for 30 minutes at 4 °C. The beads were washed 3× with buffer (50 mM Tris-HCl pH 7.4, 5% glycerol, 1.5 mM MgCl2, 150 mM NaCl, 1 mM Na3VO3, 5 mM NaF) supplemented with 0.4% IGEPAL CA-630 and adjusted to a 5% v/v slurry.
(§9) Lysate with a protein concentration of approx. 2 mg/mL (500 µL) were added to the TCO beads (35 µL) on a 96-well filter plate (Porvair, Dunn #240002) and incubated at 4°C for 2 h. After incubation, beads were washed using a vacuum manifold with 5 mL wash buffer 1 (WB1) (50 mM […]
(§10) (50 mM HEPES pH 8.5, 2 M urea), and 5 mL WB4 (50 mM HEPES pH 8.5). Proteins were then eluted by on bead digestion: 60 µL elution buffer (50 mM HEPES pH 8.5, 5 mM Tris-(2-carboxyethyl)phosphine, 15 mM chloroacetamide, 0.004 µg LysC/ µL (Wako chemicals), 0.004 µg trypsin/µL (Promega)) were added to the washed beads and incubated over night at room temperature. Eluates were collected by centrifugation, beads incubated with an additional 60 µL WB4, eluted and both eluates were combined and lyophilized. […]
(§11) proportional to the number of ions; this measure is referred to as ion area.24 Spectra matching to peptides were filtered according to the following criteria: mascot ion score >15, signal-to-background of the precursor ion >4, and signal -to-interference >0.5. Fold-changes were corrected for isotope purity and adjusted for interference caused by co-eluting nearly isobaric peaks.25 Protein quantification was derived from individual spectra matching to distinct peptides by using a sum-based bootstrap algorithm; 95% confidence intervals were calculated for all protein fold-changes that were quantified with more than three spectra.23 Relative protein abundance s were generated on the basis of MS1 abundances .26 Briefly, XIC peaks were matched to identified peptides. […] These values were then summed, and the mean was calculated.
(§12) In cases where fewer than 3 sequences were associated, the mean was calculated using XIC intensities from either one or two sequences.
(§13) Proteins were filtered for >1 quantified spectra matches (qusm). Residual binding was calculated […]

[2] = molecular target: T2, DHX36 (Homo sapiens, UniProt Q9H2U1)
T2 construct: endogenous in cells; host or cells: MCF7
Protocol: as §1, §2, §3, §4, §5, §6, §7, §8, §9, §10, §11, §12, §13

[3] = molecular target: T3, GCLC (Homo sapiens, UniProt P48506)
T3 construct: endogenous in cells; host or cells: MCF7
Protocol: as §1, §2, §3, §4, §5, §6, §7, §8, §9, §10, §11, §12, §13

[4] = molecular target: T4, SMG9 (Homo sapiens, UniProt Q9H0W8)
T4 construct: endogenous in cells; host or cells: MCF7
Protocol: as §1, §2, §3, §4, §5, §6, §7, §8, §9, §10, §11, §12, §13

[5] = molecular target: T5, SRBD1 (Homo sapiens, UniProt Q8N5C6)
T5 construct: endogenous in cells; host or cells: MCF7
Protocol: as §1, §2, §3, §4, §5, §6, §7, §8, §9, §10, §11, §12, §13

T3 sequence (P48506 whole entry): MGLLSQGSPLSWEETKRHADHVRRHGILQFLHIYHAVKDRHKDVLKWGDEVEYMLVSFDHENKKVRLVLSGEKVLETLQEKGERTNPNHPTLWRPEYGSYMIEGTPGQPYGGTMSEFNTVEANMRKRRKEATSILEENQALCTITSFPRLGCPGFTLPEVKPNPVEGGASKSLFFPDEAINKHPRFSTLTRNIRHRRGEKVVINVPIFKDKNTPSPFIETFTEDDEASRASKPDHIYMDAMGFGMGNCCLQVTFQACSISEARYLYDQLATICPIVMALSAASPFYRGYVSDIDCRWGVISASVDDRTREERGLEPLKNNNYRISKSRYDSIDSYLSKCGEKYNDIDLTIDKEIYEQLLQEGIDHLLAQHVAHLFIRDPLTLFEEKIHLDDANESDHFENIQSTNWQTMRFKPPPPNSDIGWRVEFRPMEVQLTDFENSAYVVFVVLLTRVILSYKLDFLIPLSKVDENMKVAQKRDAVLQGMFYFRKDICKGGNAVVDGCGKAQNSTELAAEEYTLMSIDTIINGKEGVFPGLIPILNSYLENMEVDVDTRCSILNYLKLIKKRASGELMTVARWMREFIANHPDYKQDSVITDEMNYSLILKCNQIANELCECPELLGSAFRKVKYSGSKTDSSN
T1 sequence (Q02252 34-535): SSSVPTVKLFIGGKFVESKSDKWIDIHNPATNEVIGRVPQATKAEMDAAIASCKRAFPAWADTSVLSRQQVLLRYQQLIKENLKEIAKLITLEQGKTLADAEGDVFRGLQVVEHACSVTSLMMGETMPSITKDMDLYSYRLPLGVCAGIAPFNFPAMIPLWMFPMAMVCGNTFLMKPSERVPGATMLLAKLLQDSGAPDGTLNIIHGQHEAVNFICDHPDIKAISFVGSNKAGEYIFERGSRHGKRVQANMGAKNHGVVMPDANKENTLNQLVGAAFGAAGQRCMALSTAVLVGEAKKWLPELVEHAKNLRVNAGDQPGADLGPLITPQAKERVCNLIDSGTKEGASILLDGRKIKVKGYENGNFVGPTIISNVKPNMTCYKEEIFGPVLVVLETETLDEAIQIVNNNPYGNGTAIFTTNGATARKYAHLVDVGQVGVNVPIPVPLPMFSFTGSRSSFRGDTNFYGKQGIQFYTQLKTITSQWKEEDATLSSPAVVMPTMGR
T4 sequence (Q9H0W8 whole entry): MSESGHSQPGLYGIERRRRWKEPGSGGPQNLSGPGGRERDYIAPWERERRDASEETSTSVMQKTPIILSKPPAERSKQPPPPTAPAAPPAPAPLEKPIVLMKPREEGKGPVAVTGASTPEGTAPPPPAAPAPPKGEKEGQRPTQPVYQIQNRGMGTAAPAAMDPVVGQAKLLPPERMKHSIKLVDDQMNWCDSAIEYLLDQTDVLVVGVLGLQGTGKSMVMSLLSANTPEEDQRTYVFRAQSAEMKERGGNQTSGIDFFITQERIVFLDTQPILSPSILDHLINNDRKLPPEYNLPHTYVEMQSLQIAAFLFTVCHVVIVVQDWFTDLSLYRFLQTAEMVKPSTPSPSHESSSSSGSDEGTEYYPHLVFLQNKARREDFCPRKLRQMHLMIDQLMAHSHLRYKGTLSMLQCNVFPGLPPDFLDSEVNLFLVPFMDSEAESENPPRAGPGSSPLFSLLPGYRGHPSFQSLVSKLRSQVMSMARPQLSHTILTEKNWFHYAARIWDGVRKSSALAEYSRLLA
T2 sequence (Q9H2U1 whole entry): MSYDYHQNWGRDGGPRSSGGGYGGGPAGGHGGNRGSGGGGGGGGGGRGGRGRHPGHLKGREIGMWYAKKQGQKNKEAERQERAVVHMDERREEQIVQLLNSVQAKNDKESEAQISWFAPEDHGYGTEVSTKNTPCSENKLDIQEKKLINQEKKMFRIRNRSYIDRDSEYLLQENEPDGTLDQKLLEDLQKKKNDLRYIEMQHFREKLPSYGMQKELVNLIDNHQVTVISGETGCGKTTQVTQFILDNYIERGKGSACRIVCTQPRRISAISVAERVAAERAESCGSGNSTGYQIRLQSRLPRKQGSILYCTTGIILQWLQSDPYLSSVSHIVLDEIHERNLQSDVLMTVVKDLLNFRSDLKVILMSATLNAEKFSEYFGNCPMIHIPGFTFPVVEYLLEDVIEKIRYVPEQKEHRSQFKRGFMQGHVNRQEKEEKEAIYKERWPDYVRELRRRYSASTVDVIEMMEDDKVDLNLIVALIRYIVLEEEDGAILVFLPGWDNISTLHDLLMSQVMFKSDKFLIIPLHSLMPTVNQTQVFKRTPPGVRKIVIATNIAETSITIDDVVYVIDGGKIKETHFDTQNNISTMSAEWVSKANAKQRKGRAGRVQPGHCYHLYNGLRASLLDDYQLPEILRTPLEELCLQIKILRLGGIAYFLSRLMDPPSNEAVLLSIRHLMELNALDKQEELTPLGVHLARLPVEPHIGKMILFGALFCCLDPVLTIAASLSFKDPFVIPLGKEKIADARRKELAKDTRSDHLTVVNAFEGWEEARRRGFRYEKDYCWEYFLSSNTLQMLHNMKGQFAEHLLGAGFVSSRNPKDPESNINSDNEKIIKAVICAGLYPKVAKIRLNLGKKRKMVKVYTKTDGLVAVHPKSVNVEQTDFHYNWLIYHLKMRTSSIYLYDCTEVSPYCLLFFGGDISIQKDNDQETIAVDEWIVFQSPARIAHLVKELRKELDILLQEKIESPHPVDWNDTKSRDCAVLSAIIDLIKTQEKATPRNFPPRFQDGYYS
T5 sequence (Q8N5C6 whole entry): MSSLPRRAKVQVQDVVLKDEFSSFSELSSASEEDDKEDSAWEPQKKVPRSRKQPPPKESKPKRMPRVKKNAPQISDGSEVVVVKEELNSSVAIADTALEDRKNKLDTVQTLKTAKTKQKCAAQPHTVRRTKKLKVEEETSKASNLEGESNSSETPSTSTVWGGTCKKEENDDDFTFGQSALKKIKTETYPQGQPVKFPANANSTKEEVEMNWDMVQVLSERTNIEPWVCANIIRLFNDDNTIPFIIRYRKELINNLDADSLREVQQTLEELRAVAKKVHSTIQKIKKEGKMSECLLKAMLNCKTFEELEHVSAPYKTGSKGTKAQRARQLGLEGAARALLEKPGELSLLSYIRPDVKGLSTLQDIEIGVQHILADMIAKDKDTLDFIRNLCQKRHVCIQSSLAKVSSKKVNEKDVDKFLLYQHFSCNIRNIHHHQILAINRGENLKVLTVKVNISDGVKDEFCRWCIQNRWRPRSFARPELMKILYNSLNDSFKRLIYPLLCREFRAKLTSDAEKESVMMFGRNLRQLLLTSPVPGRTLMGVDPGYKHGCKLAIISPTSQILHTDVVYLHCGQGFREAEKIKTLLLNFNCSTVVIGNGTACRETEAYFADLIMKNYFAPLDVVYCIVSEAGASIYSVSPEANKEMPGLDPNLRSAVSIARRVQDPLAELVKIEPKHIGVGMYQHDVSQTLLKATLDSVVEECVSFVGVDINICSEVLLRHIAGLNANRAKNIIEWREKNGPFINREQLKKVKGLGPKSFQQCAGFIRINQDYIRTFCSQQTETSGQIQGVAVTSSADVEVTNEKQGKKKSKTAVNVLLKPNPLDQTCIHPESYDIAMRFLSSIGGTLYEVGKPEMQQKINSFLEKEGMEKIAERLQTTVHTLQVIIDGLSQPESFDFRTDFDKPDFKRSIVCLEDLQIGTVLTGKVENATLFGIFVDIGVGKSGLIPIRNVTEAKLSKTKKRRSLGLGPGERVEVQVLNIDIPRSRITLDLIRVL

- ratio: mean ratio between control and competition samples, ALDH6A1 [1]: -0.9838 log2
- ratio: mean ratio between control and competition samples, DHX36 [2]: -0.8884 log2
- ratio: mean ratio between control and competition samples, GCLC [3]: -0.8853 log2
- ratio: mean ratio between control and competition samples, SMG9 [4]: -0.8383 log2
- ratio: mean ratio between control and competition samples, SRBD1 [5]: -0.7897 log2
Structure (SMILES): COC(=O)/C=C/CNC(=O)c1cc2c([nH]c1=O)CCCC2 [Compound 11a]
